Laboratory results from PMC6151531, “Development of a Non-Hydroxamate Dual Matrix Metalloproteinase (MMP)-7/-13 Inhibitor” (Molecules : A Journal of Synthetic Chemistry and Natural …, 2017).
“And” between values parts separate entries of the source, which are not always exact repeats. Equal entries are not always repeated. Where two headings read alike, the source gives them in different places. Blank lines part the entries; values can stand above or below the molecule they belong to.

Assays:
[1] = molecular target: T1, MMP-7 (Homo sapiens, UniProt P09237); conditions: cited from earlier work
T1 sequence (P09237 95-267): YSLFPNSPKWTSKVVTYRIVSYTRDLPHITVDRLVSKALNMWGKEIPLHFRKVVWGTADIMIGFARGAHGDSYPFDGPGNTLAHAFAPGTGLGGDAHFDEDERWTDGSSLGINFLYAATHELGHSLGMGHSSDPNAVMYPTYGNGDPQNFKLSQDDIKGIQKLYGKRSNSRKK

[2] = molecular target: T2, MMP-8 (Homo sapiens, UniProt P22894); conditions: 10 µM inhibitor concentration; cited from earlier work
T2 sequence (P22894 101-467): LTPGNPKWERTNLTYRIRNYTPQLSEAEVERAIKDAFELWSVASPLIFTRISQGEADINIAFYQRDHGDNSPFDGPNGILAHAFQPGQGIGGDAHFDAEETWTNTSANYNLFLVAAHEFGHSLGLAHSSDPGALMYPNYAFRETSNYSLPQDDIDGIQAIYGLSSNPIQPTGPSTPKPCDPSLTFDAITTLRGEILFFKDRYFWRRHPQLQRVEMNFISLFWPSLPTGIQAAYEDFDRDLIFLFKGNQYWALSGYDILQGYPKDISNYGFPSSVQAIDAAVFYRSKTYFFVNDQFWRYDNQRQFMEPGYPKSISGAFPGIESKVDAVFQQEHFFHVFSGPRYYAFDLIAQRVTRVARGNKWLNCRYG

[3] = molecular target: MMP-13 (Homo sapiens, UniProt P45452); test: MMP-13 FRET peptide enzyme assay (single dose 10 μM and IC50); format: biochemical; conditions: for activity at 10 µM: remaining enzyme activity at 10 μM inhibitor concentration; for activity at 10 µM / IC50: measured in duplicate
[4] = molecular target: T3, MMP-9 (Homo sapiens, UniProt P14780); conditions: 10 µM inhibitor concentration; cited from earlier work
T3 sequence (P14780 94-707): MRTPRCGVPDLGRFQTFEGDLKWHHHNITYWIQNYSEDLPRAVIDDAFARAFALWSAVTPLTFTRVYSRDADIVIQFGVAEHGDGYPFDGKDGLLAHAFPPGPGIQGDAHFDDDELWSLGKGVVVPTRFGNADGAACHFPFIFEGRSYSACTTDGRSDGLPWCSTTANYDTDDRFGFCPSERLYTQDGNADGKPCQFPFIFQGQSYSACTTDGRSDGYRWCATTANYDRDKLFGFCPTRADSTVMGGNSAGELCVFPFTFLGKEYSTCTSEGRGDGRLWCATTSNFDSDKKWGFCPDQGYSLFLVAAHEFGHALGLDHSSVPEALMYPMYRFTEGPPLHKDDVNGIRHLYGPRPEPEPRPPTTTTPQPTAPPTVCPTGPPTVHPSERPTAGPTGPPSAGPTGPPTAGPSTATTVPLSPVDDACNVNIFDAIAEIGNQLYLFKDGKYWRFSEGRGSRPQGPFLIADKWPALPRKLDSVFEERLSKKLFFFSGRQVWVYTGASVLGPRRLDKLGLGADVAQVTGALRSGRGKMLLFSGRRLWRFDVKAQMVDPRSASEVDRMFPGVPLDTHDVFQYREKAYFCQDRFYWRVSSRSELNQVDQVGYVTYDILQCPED

[5] = molecular target: T1, MMP-7; conditions: 10 µM inhibitor concentration; cited from earlier work
[6] = molecular target: T4, MMP-1 (Homo sapiens, UniProt P03956); conditions: 10 µM inhibitor concentration; cited from earlier work
T4 sequence (P03956 100-469): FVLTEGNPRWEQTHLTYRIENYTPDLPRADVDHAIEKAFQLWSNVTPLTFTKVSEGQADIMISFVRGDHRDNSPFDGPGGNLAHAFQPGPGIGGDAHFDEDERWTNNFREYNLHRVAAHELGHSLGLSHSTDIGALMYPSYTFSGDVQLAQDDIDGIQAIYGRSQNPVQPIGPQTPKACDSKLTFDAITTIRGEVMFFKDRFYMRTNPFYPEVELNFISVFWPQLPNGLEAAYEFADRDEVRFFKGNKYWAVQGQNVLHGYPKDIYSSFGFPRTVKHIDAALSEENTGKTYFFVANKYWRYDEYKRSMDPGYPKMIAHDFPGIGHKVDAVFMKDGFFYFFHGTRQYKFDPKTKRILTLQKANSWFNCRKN

[7] = molecular target: T5, MMP-2 (Homo sapiens, UniProt P08253); conditions: 10 µM inhibitor concentration; cited from earlier work
T5 sequence (P08253 110-660): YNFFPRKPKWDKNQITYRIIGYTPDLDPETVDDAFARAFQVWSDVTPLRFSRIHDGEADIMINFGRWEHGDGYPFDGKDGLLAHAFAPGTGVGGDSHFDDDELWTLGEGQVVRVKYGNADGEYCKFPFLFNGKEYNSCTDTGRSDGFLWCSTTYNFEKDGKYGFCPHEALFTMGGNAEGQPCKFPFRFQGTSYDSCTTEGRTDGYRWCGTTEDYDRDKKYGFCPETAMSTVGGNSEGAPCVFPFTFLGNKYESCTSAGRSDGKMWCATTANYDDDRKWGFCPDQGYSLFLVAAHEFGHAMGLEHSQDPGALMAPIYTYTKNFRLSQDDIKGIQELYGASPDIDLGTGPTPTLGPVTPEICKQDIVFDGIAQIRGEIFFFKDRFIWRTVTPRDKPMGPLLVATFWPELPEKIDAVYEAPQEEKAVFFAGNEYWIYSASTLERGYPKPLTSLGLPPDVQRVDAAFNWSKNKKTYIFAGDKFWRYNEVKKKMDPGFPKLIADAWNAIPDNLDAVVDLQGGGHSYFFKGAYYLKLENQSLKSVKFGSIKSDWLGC

[8] = molecular target: T6, MMP-14 (Homo sapiens, UniProt P50281); conditions: 10 µM inhibitor concentration; cited from earlier work
[9] = molecular target: T1, MMP-7; test: MMP-7 FRET peptide enzyme assay (single dose 10 μM and IC50); conditions: for IC50: IC50 MMP-7, measured in duplicate; for activity at 10 µM: read-out: % Activity MMP-7
[10] = molecular target: T7, MMP-12 (Homo sapiens, UniProt P39900); conditions: 10 µM inhibitor concentration; cited from earlier work
T7 sequence (P39900 106-470): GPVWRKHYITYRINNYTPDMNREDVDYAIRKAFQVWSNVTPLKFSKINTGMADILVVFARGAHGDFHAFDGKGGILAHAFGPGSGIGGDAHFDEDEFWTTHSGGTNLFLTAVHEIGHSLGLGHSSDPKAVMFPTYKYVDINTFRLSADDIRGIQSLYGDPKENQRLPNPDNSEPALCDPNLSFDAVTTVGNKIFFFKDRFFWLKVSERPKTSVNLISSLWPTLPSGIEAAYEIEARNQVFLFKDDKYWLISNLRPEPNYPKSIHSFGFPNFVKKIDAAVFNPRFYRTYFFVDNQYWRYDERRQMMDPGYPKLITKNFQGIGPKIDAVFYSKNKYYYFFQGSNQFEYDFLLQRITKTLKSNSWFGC

[11] = molecular target: T8, MMP-3 (Homo sapiens, UniProt P08254); conditions: 10 µM inhibitor concentration; cited from earlier work
T8 sequence (P08254 100-477): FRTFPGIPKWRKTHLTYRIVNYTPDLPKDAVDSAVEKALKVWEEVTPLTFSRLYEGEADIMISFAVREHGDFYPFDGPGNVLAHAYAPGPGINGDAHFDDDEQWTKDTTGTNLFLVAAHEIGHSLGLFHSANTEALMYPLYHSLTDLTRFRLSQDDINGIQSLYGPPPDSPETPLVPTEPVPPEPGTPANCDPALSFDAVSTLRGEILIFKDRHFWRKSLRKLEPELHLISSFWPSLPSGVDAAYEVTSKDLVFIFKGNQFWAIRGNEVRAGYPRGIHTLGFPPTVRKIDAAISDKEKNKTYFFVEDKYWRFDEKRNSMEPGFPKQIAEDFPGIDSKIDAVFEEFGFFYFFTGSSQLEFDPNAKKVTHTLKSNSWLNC

[12] = molecular target: T3, MMP-9; test: MMP-9 single dose selectivity assay; conditions: read-out: Remaining enzymatic activity MMP-9
[13] = molecular target: T2, MMP-8; test: MMP-8 single dose selectivity assay; conditions: read-out: Remaining enzymatic activity MMP-8
[14] = molecular target: T5, MMP-2; test: MMP-2 single dose selectivity assay; conditions: read-out: Remaining enzymatic activity MMP-2
[15] = molecular target: T6, MMP-14; test: MMP-14 single dose selectivity assay; conditions: read-out: Remaining enzymatic activity MMP-14
[16] = molecular target: T4, MMP-1; test: MMP-1 single dose selectivity assay; conditions: read-out: Remaining enzymatic activity MMP-1
[17] = molecular target: T8, MMP-3; test: MMP-3 single dose selectivity assay; conditions: read-out: Remaining enzymatic activity MMP-3
[18] = molecular target: T7, MMP-12; test: MMP-12 single dose selectivity assay; conditions: read-out: Remaining enzymatic activity MMP-12

activity at 10 µM [3]: 2.5 ± 0.1%
activity at 10 µM [9]: 59.4 ± 0.2%
SMILES: O=C(O)CCCCCOc1ccc(CC(=O)Nc2ccc3c(c2)C(=O)N(Cc2ccccc2)C3=O)cc1 [Compound 14f, 6-(4-{[(2-Benzyl-1,3-dioxo-2,3-dihydro-1H-isoindol-5-yl)carbamoyl]methyl}phenoxy)hexanoic acid]

IC50 [3]: 150 ± 31 nM
activity at 10 µM [3]: 1 ± 0.1%
activity at 10 µM [9]: 53.8 ± 0.8%
SMILES: O=C(O)CCCCCCOc1ccc(CC(=O)Nc2ccc3c(c2)C(=O)N(Cc2ccccc2)C3=O)cc1 [Compound 14g, 7-(4-{[(2-Benzyl-1,3-dioxo-2,3-dihydro-1H-isoindol-5-yl)carbamoyl]methyl}phenoxy)heptanoic acid]

IC50 [3]: 1670 ± 429 nM
activity at 10 µM [3]: 16 ± 0.14%
IC50 [9]: 3180 ± 249 nM
activity at 10 µM [9]: 25.9 ± 0.5%
SMILES: O=C(O)CCCCCCCOc1ccc(CC(=O)Nc2ccc3c(c2)C(=O)N(Cc2ccccc2)C3=O)cc1 [Compound 14h, 8-(4-{[(2-Benzyl-1,3-dioxo-2,3-dihydro-1H-isoindol-5-yl)carbamoyl]methyl}phenoxy)octanoic acid]

IC50 [3]: 1200 nM and 1250 nM
remaining activity at 10 µM [12]: 87%
remaining activity at 10 µM [13]: 80%
remaining activity at 10 µM [14]: 98%
remaining activity at 10 µM [15]: 91%
remaining activity at 10 µM [16]: 100%
remaining activity at 10 µM [17]: 73%
IC50 [9]: 2200 nM and 2250 nM
remaining activity at 10 µM [18]: 97%
SMILES: O=C(O)CCCCCCCCOc1ccc(CC(=O)Nc2ccc3c(c2)C(=O)N(Cc2ccccc2)C3=O)cc1 [Compound 14i, 9-(4-{[(2-Benzyl-1,3-dioxo-2,3-dihydro-1H-isoindol-5-yl)carbamoyl]methyl}phenoxy)nonanoic acid]

IC50 [3]: 7120 ± 940 nM
IC50 [9]: 6200 ± 1850 nM
SMILES: O=C(O)CCCCCCCCCOc1ccc(CC(=O)Nc2ccc3c(c2)C(=O)N(Cc2ccccc2)C3=O)cc1 [Compound 14j, 10-(4-{[(2-Benzyl-1,3-dioxo-2,3-dihydro-1H-isoindol-5-yl)carbamoyl]methyl}phenoxy)decanoic acid]

activity at 10 µM [3]: 37 ± 0.2%
activity at 10 µM [9]: 98 ± 7.3%
SMILES: O=C(O)CCOc1ccc(CC(=O)Nc2ccc3c(c2)C(=O)N(Cc2ccc(F)cc2)C3=O)cc1 [Compound 14k, 3-{4-[({2-[(4-Fluorophenyl)methyl]-1,3-dioxo-2,3-dihydro-1H-isoindol-5-yl}carbamoyl)methyl]-phenoxy}propanoic acid]

IC50 [3]: 361 ± 52 nM
activity at 10 µM [3]: 3.6 ± 1.1%
activity at 10 µM [9]: 85.1 ± 2.2%
SMILES: O=C(O)CCCOc1ccc(CC(=O)Nc2ccc3c(c2)C(=O)N(Cc2ccc(F)cc2)C3=O)cc1 [Compound 14l, 4-{4-[({2-[(4-Fluorophenyl)methyl]-1,3-dioxo-2,3-dihydro-1H-isoindol-5-yl}carbamoyl)methyl]-phenoxy}butanoic acid]

activity at 10 µM [3]: 1.2 ± 0.1%
activity at 10 µM [9]: 69.2 ± 0.1%
SMILES: O=C(O)CCCCCOc1ccc(CC(=O)Nc2ccc3c(c2)C(=O)N(Cc2ccc(F)cc2)C3=O)cc1 [Compound 14m, 6-{4-[({2-[(4-Fluorophenyl)methyl]-1,3-dioxo-2,3-dihydro-1H-isoindol-5-yl}carbamoyl)methyl]-phenoxy}hexanoic acid]

activity at 10 µM [3]: 1.9 ± 0.5%
activity at 10 µM [9]: 47.5 ± 5.1%
SMILES: O=C(O)CCCCCCOc1ccc(CC(=O)Nc2ccc3c(c2)C(=O)N(Cc2ccc(F)cc2)C3=O)cc1 [Compound 14n, 7-{4-[({2-[(4-Fluorophenyl)methyl]-1,3-dioxo-2,3-dihydro-1H-isoindol-5-yl}carbamoyl)methyl]-phenoxy}heptanoic acid]

activity at 10 µM [3]: 34.6 ± 2.3%
activity at 10 µM [9]: 64.5 ± 3.7%
SMILES: O=C(O)CCCCCCCOc1ccc(CC(=O)Nc2ccc3c(c2)C(=O)N(Cc2ccc(F)cc2)C3=O)cc1 [Compound 14o, 8-{4-[({2-[(4-Fluorophenyl)methyl]-1,3-dioxo-2,3-dihydro-1H-isoindol-5-yl}carbamoyl)methyl]-phenoxy}octanoic acid]

More lines, now with the values behind:

SMILES: O=C(O)C(Cc1c[nH]c2ccccc12)NS(=O)(=O)c1ccc(Cl)c(C(F)(F)F)c1 (stereo not shown) [Compound 3]
selectivity over MMP-1 ([1]; MMP-7 over MMP-1): 10 fold
selectivity over MMP-14 ([1]; MMP-7 over MMP-14): 10 fold
IC50 [1]: 10000 nM

SMILES: O=C(O)CCCCOc1ccc(CC(=O)Nc2ccc3c(c2)C(=O)N(Cc2ccc(F)cc2)C3=O)cc1 [Compound 5, 5-{4-[({2-[(4-Fluorophenyl)methyl]-1,3-dioxo-2,3-dihydro-1H-isoindol-5-yl}carbamoyl)methyl]-phenoxy}pentanoic acid]
Remaining enzymatic activity MMP-8 [2]: 97%
selectivity for MMP-13 over MMP-7 ([3]; from IC50-values): > 2600 fold
Remaining enzymatic activity MMP-9 [4]: 100%
Remaining enzymatic activity MMP-7 [5]: 68%
Remaining enzymatic activity MMP-1 [6]: 100%
Remaining enzymatic activity MMP-2 [7]: 100%
Remaining enzymatic activity MMP-14 [8]: 100%
IC50 [9]: 15700 nM and 15600 nM
activity at 10 µM [9]: 67.5 ± 2.6%
Remaining enzymatic activity MMP-12 [10]: 91%
Remaining enzymatic activity MMP-3 [11]: 100%

SMILES: CN1C(=O)c2ccc(NC(=O)Cc3ccc(OCCCCC(=O)O)cc3)cc2C1=O [Compound 14a, 5-(4-{[(2-Methyl-1,3-dioxo-2,3-dihydro-1H-isoindol-5-yl)carbamoyl]methyl}phenoxy)pentanoic acid]
activity at 10 µM [3]: 23.7 ± 3.3%
inhibition of MMP-7 (in words) ([9]; discussion of structure activity relationship): total loss of inhibition
activity at 10 µM [9]: 100 ± 4.4%

SMILES: O=C(O)COc1ccc(CC(=O)Nc2ccc3c(c2)C(=O)N(Cc2ccccc2)C3=O)cc1 [Compound 14b, 2-(4-{[(2-Benzyl-1,3-dioxo-2,3-dihydro-1H-isoindol-5-yl)carbamoyl]methyl}phenoxy)acetic acid]
activity at 10 µM [3]: 58.7 ± 2.7%
activity at 10 µM [9]: 89.9 ± 10%

SMILES: O=C(O)CCOc1ccc(CC(=O)Nc2ccc3c(c2)C(=O)N(Cc2ccccc2)C3=O)cc1 [Compound 14c, 3-(4-{[(2-Benzyl-1,3-dioxo-2,3-dihydro-1H-isoindol-5-yl)carbamoyl]methyl}phenoxy)propanoic acid]
activity at 10 µM [3]: 35.8 ± 5.1%
activity at 10 µM [9]: 93.1 ± 1.7%

SMILES: O=C(O)CCCOc1ccc(CC(=O)Nc2ccc3c(c2)C(=O)N(Cc2ccccc2)C3=O)cc1 [Compound 14d, 4-(4-{[(2-Benzyl-1,3-dioxo-2,3-dihydro-1H-isoindol-5-yl)carbamoyl]methyl}phenoxy)butanoic acid]
activity at 10 µM [3]: 2.6 ± 1.3%
activity at 10 µM [9]: 91.3 ± 0.4%

SMILES: O=C(O)CCCCOc1ccc(CC(=O)Nc2ccc3c(c2)C(=O)N(Cc2ccccc2)C3=O)cc1 [Compound 14e, 5-(4-{[(2-Benzyl-1,3-dioxo-2,3-dihydro-1H-isoindol-5-yl)carbamoyl]methyl}phenoxy)pentanoic acid]
activity at 10 µM [9]: 93.2 ± 3.3%
